The values that follow come from paper PMC5955599, “The HTLV-1 gp21 fusion peptide inhibits antigen specific T-cell activation in-vitro and in mice” (PLoS Pathogens, 2018).

The test system of series [1] is MOG35-55–antigen specific T-cells. Briefly: In-vitro T-cell proliferative response (H3-thymidine incorporation). The series is classed as cell-based, mouse (C57Bl/6J). Particulars: peptide at 10μM; for inhibition of T-cell proliferation, activation by PMA and Ionomycin: 50ng/mL PMA with 1μM ionomycin; for inhibition of T-cell proliferation, activation by antibodies against CD3 and CD28: CD3 and CD28 antibodies 2μg/ml; for inhibition of T-cell proliferation, activation by MOG35-55 presenting APCs: irradiated MOG35-55 presenting APCs, mean inhibition of proliferation. (Dividing cells build labelled thymidine or BrdU into new DNA.)

Series [2] shares this test system. Description: T-bet and Gata3 expression detected by FACS. It counts as cell-based, mouse (C57Bl/6J). Particulars: peptide at 10μM, APC activation, n = 3. As for the experimental part: (A-B) MOG35-55–antigen specific T-cells were activated by irradiated MOG35-55 presenting APCs, in the presence of the HTLV FP at 10μM. Total RNA was isolated 24 hours following activation and mRNA expression levels were determined by qRT-PCR. The values of each gene were normalized to Rpl13a as a housekeeping control. The HTLV FP reduces TBX21 (T-bet) mRNA expression and elevates GATA3 mRNA expression. The data is presented as arbitrary units. n≥3. (C-H) MOG35-55–antigen specific T-cells were activated by irradiated MOG35-55 presenting APCs, in the presence of either HTLV or HIV FP at 10μM. Samples were fixed in 4% PFA and stained with anti T-bet-APC and anti Gata3-FITC antibodies (C-D) 24, (E-F) 48 and (G-H) 72 hours following activation. Each time point is represented as cell count vs. APC or FITC fluorescence histogram. Analysis was performed using LSR-II flow cytometer (BD) and FlowJo cell analysis software (FlowJo, LLC). The HTLV FP reduces T-bet expression and elevates Gata3 expression. n = 3. One-way ANOVA was used for statistical analysis. ns, not significant; *P<0.05;** P<0.01.
Antigen-specific T-cells were plated onto round 12-well plates (10^6 cells/ well) and activated with 5x10^5 irradiated (25 gray) APC and 5μg/ml of MOG p35-55 in the presence or absence of relevant peptides. Cells were washed with PBS, blocked (5% Donkey serum, 2% BSA and 0.1% Triton in PBS) and fixed with 4% Paraformaldehyde (PFA) 24 hour following activation. Cells were then stained with Gata3-FITC and T-bet-APC fluorochrome-labeled monoclonal mouse antibodies (purchased from Miltenyi Biotec) according to Miltenyi Biotec protocols. Samples were then collected using LSR-II flow cytometer and analyzed with FlowJo cell analysis software.
(In flow cytometry, cells or beads pass a laser one at a time.)

Series [3] in a line: Circular dichroism spectroscopy with CDNN secondary structure analysis. Particulars: 25μM peptide in 5mM HEPES buffer with 1% LPC; for Antiparallel β-Sheet / Parallel β-Sheet / Random-coil / α-Helix / β-turn: CD 190–260 nm, CDNN, relative amount of structure out of 100%; for secondary structure in a membrane mimetic environment: CD. It counts as physicochemical. As for the experimental part: Fig 6 Detection of the immune modulatory region within the HTLV FP. (A) Sequences of shorter peptides derived from the full length HTLV FP. (B) MOG35-55–antigen specific T-cells were activated by APCs in the presence of HTLV FP derived peptides at 10μM and proliferative responses were assessed as described above. […] The data is presented as mean inhibition of proliferation. n = 12. (C) MOG35-55–antigen specific T cells were activated by either (i) irradiated MOG35-55 presenting APCs (black), (ii) antibodies against CD3 and CD28 (white), or (iii) PMA and Ionomycin (gray) in the presence of HTLV FP5-13 and HIV FP5-13 at 10μM. Proliferative responses were assessed as described above. The HTLV FP inhibits T-cell proliferation induced either through the TCR or downstream from the TCR with equal potencies. The data is presented as mean inhibition of proliferation. n = 12. […] CD spectra were measured at 25μM in 5mM HEPES buffer containing 1% lyso-phosphatidylcholine (LPC). […] (E) MOG35-55–antigen specific T-cells were activated by APCs in the presence of HTLV FP5-13 D/L enantiomers at 10μM and proliferative responses were assessed as described above. Both HTLV FP5-13 enantiomers inhibit T-cells proliferation with equal potencies. The data is presented as mean inhibition of proliferation. n = 12. One-way ANOVA was used for statistical analysis. *P<0.05;**P<0.01;***P<0.001.

“Also recorded” adds a separate entry of the source.

Consider “AVGIGALFLGFLGAAGSTMGARSMTLTVQARQL [HIV FP, HIV-1 gp41 fusion peptide, HXB2 isolate, reference compound]”, for which, in series [1] (n = 12), the “inhibition of T-cell proliferation, activation by PMA and Ionomycin” value (“inhibition … by PMA and Ionomycin” below) was “decreased significantly when activation was downstream of TCRα and β”; the “inhibition of T-cell proliferation, activation by antibodies against CD3 and CD28” value (“inhibition … against CD3 and CD28” for short) is “decreased significantly when activation was downstream of TCRα and β”; the “inhibition of T-cell proliferation, activation by MOG35-55 presenting APCs” value (from here on “inhibition … by MOG35-55 presenting APCs”) was “inhibits T-cell proliferation with the same potency as the HIV FP”. Further, in series [2] (24 hours following activation), the “Gata3 expression (protein), 24 hours” value is given as “had no effect on Gata3 expression” and the “T-bet expression (protein), 24 hours” value is recorded as “had no effect on T-bet expression”. In series [2] (48 hours following activation), the “Gata3 expression (protein), 48 hours” value is recorded as “had no effect on Gata3 expression” and the “T-bet expression (protein), 48 hours” value is given as “had no effect on T-bet expression”. The “Gata3 expression (protein), 72 hours” value in series [2] (72 hours following activation) is “had no effect on Gata3 expression”.

On to “AVGMVIFLLVLAIMAMTASVTAAATLVKQHATA [JDV FP, Jembrana disease virus fusion peptide, Tabanan/87 isolate]”, for which the “inhibition … by MOG35-55 presenting APCs” value in series [1] (n = 12) was “showed no inhibitory activity”.

Take “AVWLVSALA [HTLV FP5-13, segment 5-13 of the HTLV FP]”: in series [1] (n = 12), the “inhibition … by PMA and Ionomycin” value was “inhibited all three levels of activation”; the “inhibition … against CD3 and CD28” value was “inhibited all three levels of activation”. In addition, the “inhibition … by MOG35-55 presenting APCs” value in series [1] (n = 12, 10 µM) was “inhibited all three levels of activation; also recorded: inhibit T-cell proliferation with higher potency than HTLV FP9-22 and HTLV FP14-22; also recorded: inhibited T-cell proliferation with the same potency”. In series [3], the “Antiparallel β-Sheet” value worked out at 6.7%, the “Parallel β-Sheet” value is 5.2%, the Random-coil is reported as 17.3% and the α-Helix is recorded as 54%. For the same sequence, in series [3], the β-turn is given as 16.8% and the “secondary structure in a membrane mimetic environment” value (“secondary structure” below) is on record as “exhibited an α-helical structure”.

On to “GALFLGFLG [HIV FP5-13, reference compound]”, for which, in series [1] (n = 12), the “inhibition … by PMA and Ionomycin” value is “significantly diminished when T-cells were activated using CD3 and CD28 antibodies or PMA and Ionomycin”; the “inhibition … against CD3 and CD28” value is “significantly diminished when T-cells were activated using CD3 and CD28 antibodies or PMA and Ionomycin”.

With “MGAGVAGGI [HTLV FP14-22, segment 14-22 of the HTLV FP]”, in series [1] (n = 12), the “inhibition … by MOG35-55 presenting APCs” value was “higher potency than HTLV FP9-22 and HTLV FP14-22”. Also, in series [3], the “Antiparallel β-Sheet” value worked out at 27.7%, the “Parallel β-Sheet” value is listed as 11.7%, the Random-coil is recorded as 32.5% and the α-Helix was 11.2%. For the same sequence, in series [3], the β-turn worked out at 17.1% and the “secondary structure” value is on record as “found to be random coils”.

Turning to “VAALTLGLALSVGLTGINVAVSALSHQRLTSLI [BLV FP, bovine leukemia virus fusion peptide, Japanese isolate of BLV-1]”, the “inhibition … by MOG35-55 presenting APCs” value in series [1] (n = 12) is given as “significantly stronger than the BLV FP”.

With “VSALAMGAGVAGGI [HTLV FP9-22, segment 9-22 of the HTLV FP]”, the “inhibition … by MOG35-55 presenting APCs” value in series [1] (n = 12) is “higher potency than HTLV FP9-22 and HTLV FP14-22”. Moreover, in series [3], the “Antiparallel β-Sheet” value came to 30.4%, the “Parallel β-Sheet” value stood at 11.7%, the Random-coil is given as 32.6% and the α-Helix amounted to 8.5%. Moreover, in series [3], the β-turn is listed as 16.8% and the “secondary structure” value was “found to be random coils”.
